Blank lines part the entries; values can stand above or below the compound they belong to.
Columns and labels:
[1] = biological target: T1, mGlu4 (Rattus norvegicus, UniProt P31423); assay: Ion dependency of [3H]3 binding; details: 10 nM [3H]3, 30 μM L-AP4, Hepes buffer with or without NaCl, MgCl2, KCl, CaCl2
[2] = biological target: T1, mGlu4; assay: Temperature dependency of [3H]3 binding; details: 10 nM [3H]3, 100 nM Glu, 30 min
[3] = biological target: T1, mGlu4; assay: Co-operative assay: enhancement of [3H]3 binding by orthosteric agonists
[4] = biological target: T1, mGlu4; assay: mGlu4 competitive binding assay against [3H]ML128; details: 10 nM compound

T1 sequence (P31423 33-912): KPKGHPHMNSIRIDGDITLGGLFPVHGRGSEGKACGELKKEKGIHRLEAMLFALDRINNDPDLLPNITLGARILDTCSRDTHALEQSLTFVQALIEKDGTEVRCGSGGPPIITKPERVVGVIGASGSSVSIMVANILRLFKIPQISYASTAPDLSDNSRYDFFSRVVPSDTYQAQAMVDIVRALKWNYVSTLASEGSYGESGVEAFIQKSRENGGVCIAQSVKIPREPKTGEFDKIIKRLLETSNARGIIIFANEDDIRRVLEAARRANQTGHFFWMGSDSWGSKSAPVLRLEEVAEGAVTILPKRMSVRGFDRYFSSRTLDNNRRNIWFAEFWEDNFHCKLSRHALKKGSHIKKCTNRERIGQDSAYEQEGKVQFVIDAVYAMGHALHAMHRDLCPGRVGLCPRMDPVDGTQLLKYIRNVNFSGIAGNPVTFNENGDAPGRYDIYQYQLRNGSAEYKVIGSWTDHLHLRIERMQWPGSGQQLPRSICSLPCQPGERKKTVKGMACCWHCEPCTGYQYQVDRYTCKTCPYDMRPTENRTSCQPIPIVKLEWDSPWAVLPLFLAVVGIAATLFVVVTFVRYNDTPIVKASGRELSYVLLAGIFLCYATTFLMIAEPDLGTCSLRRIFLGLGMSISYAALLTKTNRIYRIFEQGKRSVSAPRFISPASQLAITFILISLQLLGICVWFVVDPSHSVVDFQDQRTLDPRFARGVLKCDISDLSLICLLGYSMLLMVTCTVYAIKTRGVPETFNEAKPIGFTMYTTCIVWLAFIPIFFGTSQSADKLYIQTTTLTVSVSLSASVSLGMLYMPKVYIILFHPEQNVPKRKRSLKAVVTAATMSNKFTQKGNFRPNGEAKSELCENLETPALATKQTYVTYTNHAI

ion dependency of specific binding [1]: related to chloride ion
total amount of specific binding at +4 °C and +25 °C [2]: quite similar at +4 °C and +25 °C
specific binding at higher temperature (+45 °C) ([2]; +45 °C): drops the specific binding
SMILES: COc1cc(NC(=O)c2ccccn2)ccc1Cl [[^3H]3, N-(4-Chloro-3-methoxyphenyl)-2-picolinamide]

SMILES: N[C@@H](CCC(=O)O)C(=O)O [compound 1, L-Glutamate acid]
EC50 [3]: 832 nM

SMILES: NC(CCP(=O)(O)O)C(=O)O [compound 2, L-AP4]
logEC50 (enhancement of [3H]3 binding by orthosteric agonist) ([3]; 10 nM [3H]3, CHO cells expressing mGlu4, 30 min room temperature, n=3): −6.67 (SE 0.05)

bound fraction of [3H]3, single concentration assay ([4]; higher glutamate concentration, n=9, SE 1.2): 21.4%
bound fraction of [3H]3, single concentration assay ([4]; lower glutamate concentration, n=9, SE 1.4): 35.4%
SMILES: O=C(Nc1ccc(N2C(=O)c3cccc(F)c3C2=O)c(Cl)c1)c1ccccn1 [compound 4, N-(3-Chloro-4-(4-fluoro-1,3-dioxo-isoindolin-2-yl)phenyl)-2-picolinamide]
